The NIST ThermoML archive (doi:10.1021/je800021r)
Where “and” joins values, the source holds several entries; their conditions need not be identical. Equal values may be shown once. Numbers after ± are expanded uncertainties.

Conditions: Liquid, Ebulliometric method (Recirculating still)

Row | Structure (SMILES) | vapor or sublimation pressure (364.5 K) [kPa] | vapor or sublimation pressure (364.51 K) | vapor or sublimation pressure (364.52 K) [kPa]
1 | CC(C)(C)O [2-methylpropan-2-ol] | 142.6 ± 1.5 | – | –
2 | CC(C)C [2-methylpropane] | 1685.6 ± 7.4 | 1686.4 ± 7.4 kPa and 1686.3 ± 7.4 kPa | 1686.3 ± 7.4
3 | CCC(C)O (configuration not stated) [butan-2-ol] | – | 74.1 ± 1.4 kPa | –
4 | CO [methanol] | – | 267.5 ± 1.8 kPa | –
5 | CC(C)O [propan-2-ol] | – | 144.2 ± 1.5 kPa | –
